Results as given in patent US10294202B2, “Pyrrolidinones as herbicides” (FMC Corporation, priority 2013, dated 2019).

Tests used:
field violet = assay: Test D pre-/postemergence herbicide test; format: in vivo, Viola arvensis; settings: for Plant response rating: Field Violet, scale 0 to 100; for Plant response rating, Field Violet: scale 0 to 100 (0 no effect, 100 complete control)
From the text: (§1) Seeds of plant species selected from bluegrass (annual bluegrass, Poa annua), blackgrass (Alopecurus myosuroides), canarygrass (littleseed canarygrass, Phalaris minor), chickweed (common chickweed, Stellaria media), galium (catchweed bedstraw, Galium aparine), bromegrass, downy (downy bromegrass, Bromus tectorum), field poppy (Papaver rhoeas), field violet (Viola arvensis), foxtail, green (green foxtail, Setaria viridis), deadnettle (henbit deadnettle, Lamium amplexicaule), ryegrass, Italian (Italian ryegrass, Lolium multiflorum), kochia (Kochia scoparia), lambsquarters (Chenopodium album), oilseed rape (Brassica napus), pigweed (Amaranthus retroflexus), chamomile (scentless chamomile, Matricaria inodora), Russian thistle (Salsola kali), speedwell (bird's-eye speedwell, Veronica persica), barley, spring (spring barley, Hordeum vulgare), wheat, spring (spring wheat, Triticum aestivum), buckwheat, wild (wild buckwheat, Polygonum convolvulus), mustard, wild (wild mustard, Sinapis arvensis), oat, wild (wild oat, Avena fatua), radish, wild (wild radish, Raphanus raphanistrum), […]), barley, winter (winter barley, Hordeum vulgare), and wheat, winter (winter wheat, Triticum aestivum) were planted into a silt loam soil and treated preemergence with test chemicals formulated in a non-phytotoxic solvent mixture which included a surfactant. At the same time, these species were planted in pots containing Redi-Earth® planting medium (Scotts Company, 14111 Scottslawn Road, Marysville, Ohio 43041) comprising spaghnum peat moss, vermiculite, wetting agent and starter nutrients and treated with postemergence applications of the test chemicals formulated in the same manner. Plants ranged in height from 2 to 18 cm (1- to 4-leaf stage). Treated plants and controls were maintained in a controlled growth environment for 7 to 21 days after which time all species were compared to controls and visually evaluated. Plant response ratings, summarized in Table D, are based on a scale of 0 to 100 where 0 is no effect and 100 is complete control. A dash (-) response means no test result.

windgrass = assay: Test D pre-/postemergence herbicide test; format: in vivo, Apera spica-venti; settings: for Plant response rating: Postemergence, Windgrass, scale 0 to 100; for Plant response rating, Windgrass: Preemergence, scale 0 to 100 (0 no effect, 100 complete control)
From the text: as §1

foxtail, green = assay: Test C pre-/postemergence herbicide test; format: in vivo, Setaria viridis
From the text: Seeds of plant species selected from blackgrass (Alopecurus myosuroides), ryegrass, Italian (Italian ryegrass, Lolium multiflorum), wheat (winter wheat, Triticum aestivum), galium (catchweed bedstraw, Galium aparine), corn (Zea mays), crabgrass, large (large crabgrass, Digitaria sanguinalis), foxtail, giant (giant foxtail, Setaria faberii), johnsongrass (Sorghum halepense), lambsquarters (Chenopodium album), morningglory (Ipomoea coccinea), nutsedge, yellow (yellow nutsedge, Cyperus esculentus), pigweed (Amaranthus retroflexus), ragweed (common ragweed, Ambrosia elatior), soybean (Glycine max), barnyardgrass (Echinochloa crus-galli), oilseed rape (Brassica napus), waterhemp (common waterhemp, Amaranthus rudis), kochia (Kochia scoparia), oat, wild (wild oat, Avena fatua), surinam grass (Brachiaria decumbens), foxtail, green (green foxtail, Setaria viridis), goosegrass (Eleusine indica), bromegrass, downy (downy bromegrass, Bromus tectorum), nightshade (eastern black nightshade, Solanum ptycanthum), cocklebur (common cocklebur, Xanthium strumarium), cupgrass, woolly (woolly cupgrass, Eriochloa villosa), bermudagrass (Cynodon dactylon), sunflower, (common oilseed sunflower, Helianthus annuus), Russian thistle (Salsola kali) and velvetleaf (Abutilon theophrasti) were planted into a blend of loam soil and sand and treated preemergence with test chemicals formulated in a non-phytotoxic solvent mixture which included a surfactant. At the same time, plants selected from these crop and weed species and also barley (winter barley, Hordeum vulgare), […]), chickweed (common chickweed, Stellaria media), deadnettle (henbit deadnettle, Lamium amplexicaule), and canarygrass (littleseed canarygrass, Phalaris minor) were planted in pots containing Redi-Earth® planting medium (Scotts Company, 14111 Scottslawn Road, Marysville, Ohio 43041) comprising spaghnum peat moss, vermiculite, wetting agent and starter nutrients and treated with postemergence applications of test chemicals formulated in the same manner. Plants ranged in height from 2 to 18 cm (1- to 4-leaf stage) for postemergence treatments. Treated plants and controls were maintained in a greenhouse for 13 to 15 days, after which time all species were compared to controls and visually evaluated. Plant response ratings, summarized in Table C, are based on a scale of 0 to 100 where 0 is no effect and 100 is complete control. A dash (-) response means no test result.

[1] = Preemergence, 62 g ai/ha, scale 0 to 100
[2] = Preemergence, 125 g ai/ha, scale 0 to 100 (0 no effect, 100 complete control)
[3] = Preemergence, 31 g ai/ha, scale 0 to 100 (0 no effect, 100 complete control)
[4] = Postemergence, 31 g ai/ha, scale 0 (no effect) to 100 (complete control)
[5] = Postemergence, 62 g ai/ha, scale 0 to 100 (0 no effect, 100 complete control)
[6] = Postemergence, 125 g ai/ha, scale 0 to 100 (0 no effect, 100 complete control)

| Compound | Plant response rating (field violet; Postemergence, 31 g ai/ha) | Plant response rating (field violet; Postemergence, 62 g ai/ha) | Plant response rating (field violet; Postemergence, 125 g ai/ha) | Plant response rating (field violet; Postemergence, 250 g ai/ha) | Plant response rating, Field Violet (field violet; Preemergence, 62 g ai/ha) | Plant response rating, Field Violet (field violet; Preemergence, 31 g ai/ha) | Plant response rating (field violet; Preemergence, 125 g ai/ha) | Plant response rating (field violet; Preemergence, 250 g ai/ha) | Plant response rating (windgrass; 31 g ai/ha) | Plant response rating (windgrass; 62 g ai/ha) | Plant response rating (windgrass; 125 g ai/ha) | Plant response rating (windgrass; 250 g ai/ha) | Plant response rating, Windgrass (windgrass; 62 g ai/ha) | Plant response rating, Windgrass (windgrass; 125 g ai/ha) | Plant response rating, Windgrass (windgrass; 31 g ai/ha) | Plant response rating, Windgrass (windgrass; 250 g ai/ha) | Plant response rating, Foxtail, Green (foxtail, green; [1]) | Plant response rating, Foxtail, Green (foxtail, green; [2]) | Foxtail, Green plant response rating (foxtail, green; [3]) | Plant response rating, Foxtail, Green (foxtail, green; [4]) | further results |
| --- | --- | --- | --- | --- | --- | --- | --- | --- | --- | --- | --- | --- | --- | --- | --- | --- | --- | --- | --- | --- | --- |
| O=C1NCC(c2ccc(F)c(F)c2)C1C(=O)Nc1ccccc1C(F)(F)F (racemic) [Compound 6] | 0 | 20 | 20 | 25 | 0 | 0 | 0 | 0 | 0 | 0 | 0 | 0 | 0 | 100 | 0 | 100 | – | – | – | – | Plant response rating (field violet; Postemergence, 16 g ai/ha): 0; Plant response rating, Field Violet (field violet; Preemergence, 16 g ai/ha): 0; Plant response rating (windgrass; 16 g ai/ha): 0; Plant response rating, Windgrass (windgrass; 16 g ai/ha): 0 |
| O=C1NCC(c2ccc(Cl)c(Cl)c2)C1C(=O)Nc1ccccc1F (racemic) [Compound 14] | – | – | – | – | – | – | – | – | – | – | – | – | – | – | – | – | 90 | 90 | 25 | – | Plant response rating, Foxtail, Green (foxtail, green; Preemergence, 250 g ai/ha, scale 0 to 100 (0 no effect, 100 complete control)): 95 |
| O=C1NCC(c2ccc(F)c(C(F)(F)F)c2)C1C(=O)Nc1cccc(F)c1F (racemic) [Compound 77] | – | – | – | – | 20 | 15 | 20 | 55 | – | – | – | – | 85 | 90 | 45 | 95 | – | – | – | – | – |
| O=C1NCC(c2ccc(C(F)(F)F)cc2)C1C(=O)Nc1cccc(F)c1F (racemic) [Compound 202] | 40 | 30 | 30 | 30 | 0 | 0 | 10 | 15 | 0 | 10 | 35 | 45 | 85 | 90 | 65 | 90 | – | – | – | – | – |
| O=C1NCC(c2cc(F)c(F)c(F)c2)C1C(=O)Nc1cccc(F)c1F (stereo not shown) [Compound 48] | – | – | – | – | – | – | – | – | – | – | – | – | – | – | – | – | 90 | 90 | 80 | 0 | Plant response rating, Foxtail, Green (foxtail, green; Postemergence, 16 g ai/ha, scale 0 to 100 (0 no effect, 100 complete control)): 0; Plant response rating, Foxtail, Green (foxtail, green; [5]): 0; Plant response rating, Foxtail, Green (foxtail, green; [6]): 65; Plant response rating, Foxtail, Green (foxtail, green; Preemergence, 16 g ai/ha, scale 0 to 100): 70 |
| O=C1NCC(c2cc(F)c(F)cc2F)C1C(=O)Nc1cccc(F)c1F (stereo not shown) [Compound 50] | 0 | 0 | 0 | – | 0 | 0 | 0 | – | 0 | 0 | 0 | – | 5 | 0 | 0 | – | – | – | – | 0 | Plant response rating, Foxtail, Green (foxtail, green; [5]): 0; Plant response rating, Foxtail, Green (foxtail, green; [6]): 0; Plant response rating, Foxtail, Green (foxtail, green; Postemergence, 250 g ai/ha, scale 0 to 100 (0 no effect, 100 complete control)): 30; Plant response rating (field violet; Postemergence, 16 g ai/ha): 0; Plant response rating, Field Violet (field violet; Preemergence, 16 g ai/ha): 0; Plant response rating (windgrass; 16 g ai/ha): 0; Plant response rating, Windgrass (windgrass; 16 g ai/ha): 0 |
| O=C1NCC(c2ccc(F)c(Cl)c2)C1C(=O)Nc1ccccc1F (stereo not shown) [Compound 60] | – | – | – | – | – | – | – | – | – | – | – | – | – | – | – | – | 90 | 90 | 90 | 20 | Plant response rating, Foxtail, Green (foxtail, green; [5]): 35; Plant response rating, Foxtail, Green (foxtail, green; [6]): 45 |
| O=C1NCC(c2cccc(OC(F)(F)F)c2)C1C(=O)Nc1ccccc1F (stereo not shown) [Compound 69] | – | – | – | – | – | – | – | – | – | – | – | – | – | – | – | – | 90 | 95 | – | – | Foxtail, Green plant response rating (foxtail, green; Preemergence, 31 g ai/ha, scale 0 to 100, 0 is no effect and 100 is complete control): 90; Plant response rating (scale of 0 to 100), Foxtail, Green (foxtail, green; Preemergence, 250 g ai/ha): 95 |
| O=C1NCC(c2ccc(C(F)(F)F)cc2)C1C(=O)Nc1cccc(F)c1F (stereo not shown) [Compound 80, N-(2,3-difluorophenyl)-2-oxo-4-[4-(trifluoromethyl)phenyl]-3-pyrrolidinecarboxamide] | 15 | 20 | 15 | 25 | 20 | 0 | 20 | 25 | 0 | 10 | 10 | 25 | 20 | 75 | 5 | 90 | – | – | – | – | – |
| O=C1NCC(c2ccc(C(F)(F)F)cc2)C1C(=O)Nc1ccccc1F (stereo not shown) [Compound 231] | 20 | 20 | 10 | 25 | 0 | 0 | – | 0 | 0 | 5 | 0 | 15 | 70 | 75 | 55 | 85 | – | – | – | – | Plant response rating, Field Violet (field violet; Preemergence, 125 g ai/ha): 10 |
